The source of these data is patent US20170313758A1, “Polypeptides for the Treatment of Angiogenesis or Lymphangiogenesis-Related Diseases” (INSERM (Institut National de la Sante et de la Recherche …, priority 2014, published 2017).

One assay has as its system M10 melanoma cells. The assay is described as follows: Modified Boyden chamber invasion assay, M10 melanoma cells. The format is cell-based, human. The note with it: 500 nM, compared to control PC-treated cells, mean, FIG. 14. The method, then: Human microvascular endothelial (HMEC) cells line derived from dermal microvasculature (T. Lawley, Emory University, Atlanta, GA) were maintained in MCDB-131 medium (Gibco, Invitogen) with 10% fetal bovine serum (FBS) (Invitrogen), 2 ml glutamine (Invitrogen), 10 ng/ml endothelial growth factor (Upstate Biotechnology/Millipore), and 1 μg/ml hydrocortisone (Sigma-Aldrich). Primary melanoma M10 cells, established from patient primary nodular melanoma were maintained in RPMI medium (Gibco, Invitogen) with 10% FBS, Hepes 1 M, pyruvate Nas, and glutamine (Invitrogen). Human breast carcinoma MDA-MB-231 cells were maintained in Dulbecco's modified Eagle's medium (DMEM) (Gibco, Invitogen) with 10% FBS (Invitrogen) and 2m1 glutamine (Invitrogen). Melanoma BLM cells (American Type Culture Collection (ATCC Manassas, Va.)) were maintained in DMEM containing 4.5 g/l glucose, 10% FBS, 100 U/ml penicillin and […] streptomycin. […]
The in vitro migration (on uncoated filters) and invasion (on coated filters with matrigel, BD Bioscience) were performed using a modified Boyden chamber in 24-well plates and […] pore filter inserts (BD Bioscience). After 24h of incubation, cells were fixed, stained with crystal violet 0.5% and counted under a light microscope. […]

In the next assay the test system is ERK phosphorylation. The assay is described as follows: ERK activation signalling (ERK phosphorylation) in treated cells. The class given is cell-based. The conditions noted are these: FIG. 16. The method, then: (§1) No effect on ERK phosphorylation could be observed when the cells were treated with PC (FIGS. 15 and 16).
Assay [1] concerns the target T1, EMMPRIN/VEGFR-2 interaction (Homo sapiens, UniProt P35968).
T1 construct: endogenous in cells; HMEC and M10 are the cells used in the neighbouring peptide experiments
The assay is described as follows: Immunoprecipitation of EMMPRIN/VEGFR-2 interaction in treated cells. The format is cell-based. The conditions noted are these: FIG. 15. The method, then: For immunoprecipitation, cell lysates were incubated with antibodies against targeted proteins and Protein G-sepharose beads (Sigma). Immunoprecipitated proteins were subjected to sodium dodecyl sulphate-polyacrylamide gel electrophoresis then transferred to Nitrocellulose membranes and probed with anti-EMMPRIN mAb (555961, BD-Pharmingen), anti-VEGF (C-1) mAb (Sc-7269, Santa Cruz), anti-VEGFR-2 rabbit pAb (Sc-504, Santa Cruz-) or anti-pVEGFR-2 (Tyr 1175) rabbit mAb (2478, Cell Signaling). The proteins were visualized with ECL reagent (Pierce), and their expression was normalized relative to total cell lysate protein concentration.
as §1

For the next assay, the system named is HMEC endothelial cells. The assay is described as follows: MTT assay, proliferation of HMEC endothelial cells. The class given is cell-based, human. The conditions noted are these: treatment for 48 h, FIG. 13. The method, then: Human microvascular endothelial (HMEC) cells line derived from dermal microvasculature (T. Lawley, Emory University, Atlanta, GA) were maintained in MCDB-131 medium (Gibco, Invitogen) with 10% fetal bovine serum (FBS) (Invitrogen), 2 ml glutamine (Invitrogen), 10 ng/ml endothelial growth factor (Upstate Biotechnology/Millipore), and 1 μg/ml hydrocortisone (Sigma-Aldrich). Primary melanoma M10 cells, established from patient primary nodular melanoma were maintained in RPMI medium (Gibco, Invitogen) with 10% FBS, Hepes 1 M, pyruvate Nas, and glutamine (Invitrogen). Human breast carcinoma MDA-MB-231 cells were maintained in Dulbecco's modified Eagle's medium (DMEM) (Gibco, Invitogen) with 10% FBS (Invitrogen) and 2m1 glutamine (Invitrogen). Melanoma BLM cells (American Type Culture Collection (ATCC Manassas, Va.)) were maintained in DMEM containing 4.5 g/l glucose, 10% FBS, 100 U/ml penicillin and […] streptomycin. HEK293T cells (ATCC) were cultured in DMEM medium (Gibco, Invitogen) supplemented with 10% FBS (Invitrogen), 100 U/ml penicillin, […] streptomycin and 2 ml glutamine (Invitrogen).
As VEGFR-2 has been implicated in regulation of endothelial cells migration/invasion and proliferation processes, we first investigated the effect of EMMPRIN inhibitor peptide (PI) on endothelial cell proliferation. […]

For the next assay, the target named is T2, VEGFR-2 (human, UniProt P35968 20-1356).
T2 construct: Endogenous receptor of human cells (HMEC, M10, MDA-MB-231, BLM); the whole entry is named; also called KDR
The assay is described as follows: VEGFR-2 immunoprecipitation, EMMPRIN western blot, transfected BLM-EMMPRIN-miRNA cells. As for the experimental part:
For immunoprecipitation, cell lysates were incubated with antibodies against targeted proteins and Protein G-sepharose beads (Sigma). […] The proteins were visualized with ECL reagent (Pierce), and their expression was normalized relative to total cell lysate protein concentration.

T1 sequence (P35968 20-1356): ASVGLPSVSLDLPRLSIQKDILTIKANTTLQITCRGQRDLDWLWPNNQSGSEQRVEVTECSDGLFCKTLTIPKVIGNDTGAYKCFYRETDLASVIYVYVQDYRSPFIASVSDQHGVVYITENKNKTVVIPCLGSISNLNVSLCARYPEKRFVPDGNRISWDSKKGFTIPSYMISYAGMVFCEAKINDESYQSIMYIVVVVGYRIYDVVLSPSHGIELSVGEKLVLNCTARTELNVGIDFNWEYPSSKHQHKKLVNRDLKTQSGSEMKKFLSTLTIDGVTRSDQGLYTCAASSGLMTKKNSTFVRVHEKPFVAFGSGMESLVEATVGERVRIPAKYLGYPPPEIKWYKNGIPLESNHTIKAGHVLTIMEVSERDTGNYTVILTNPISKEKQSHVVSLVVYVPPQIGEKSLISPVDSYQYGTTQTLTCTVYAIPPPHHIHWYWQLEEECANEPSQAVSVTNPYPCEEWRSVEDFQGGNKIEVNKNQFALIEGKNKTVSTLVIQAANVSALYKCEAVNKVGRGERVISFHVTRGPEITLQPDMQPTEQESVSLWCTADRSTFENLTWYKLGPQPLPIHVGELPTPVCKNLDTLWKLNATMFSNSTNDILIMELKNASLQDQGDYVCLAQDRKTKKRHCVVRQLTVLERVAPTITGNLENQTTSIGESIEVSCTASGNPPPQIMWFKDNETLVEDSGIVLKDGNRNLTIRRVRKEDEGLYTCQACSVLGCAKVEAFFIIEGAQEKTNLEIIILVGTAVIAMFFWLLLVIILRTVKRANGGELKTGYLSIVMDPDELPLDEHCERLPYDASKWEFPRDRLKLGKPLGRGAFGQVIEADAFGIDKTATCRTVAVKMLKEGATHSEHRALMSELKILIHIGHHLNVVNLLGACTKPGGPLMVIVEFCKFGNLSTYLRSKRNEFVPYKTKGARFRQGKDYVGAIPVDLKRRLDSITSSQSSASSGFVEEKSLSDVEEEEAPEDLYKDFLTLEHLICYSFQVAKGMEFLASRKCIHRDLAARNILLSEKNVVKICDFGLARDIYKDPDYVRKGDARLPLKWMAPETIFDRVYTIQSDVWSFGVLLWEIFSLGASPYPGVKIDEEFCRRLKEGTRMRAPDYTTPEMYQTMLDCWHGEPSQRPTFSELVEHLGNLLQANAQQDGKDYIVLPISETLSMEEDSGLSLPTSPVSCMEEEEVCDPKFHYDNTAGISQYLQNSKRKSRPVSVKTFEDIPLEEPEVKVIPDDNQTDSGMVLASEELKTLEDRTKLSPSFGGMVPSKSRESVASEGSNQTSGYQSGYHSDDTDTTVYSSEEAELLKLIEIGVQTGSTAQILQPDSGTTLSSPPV
T2 sequence (P35968 20-1356 limits assumed): as the sequence (P35968 20-1356) above

Consider “PI: EMMPRIN peptide inhibitor (PI); sequence not specified in the text”, for which the “decrease in M10 cell invasion capacity” value with M10 melanoma cells stood at 60%. Moreover, the ERK phosphorylation result in the assay on ERK phosphorylation is listed as “significant decrease”. Besides, the EMMPRIN/VEGFR-2 interaction entry in assay [1] (100 nM) and in assay [1] (500 nM) was “able to decrease EMMPRIN/VEGFR-2 interaction” throughout. The “inhibition of proliferation of HMEC cells” value in the assay on HMEC endothelial cells was “approx. 50%”.

B1: EMMPRIN D136A (receptor)
chain: AAGTVFTTVEDLGSKILLTCSLNDSATEVTGHRWLKGGVVLKEDALPGQKTEFKVDSDDQWGEYSCVFPPEPMGTANIQLHGPPRVKAVKSSEHINEGETAMLVCKSESVPPVTAWAWYKITDSEDKALMNGSESRFFVSSSQGRSELHIENLNMEADPGQYRCNGTSSKGSDQAIITLRVCSHLAALWPFLGIVAEVLVLVTIIFIYEKRRKPEDVLDDDDAGSAPLKSSGQHQNDKGKNVRQRNSS
notes: Full-length EMMPRIN cDNA mutant transfected into BLM-EMMPRIN-miRNA cells; also called control D136A; negative control D136A mutant
With B1, the binding result with VEGFR-2 is “binds”.
